Results: US5233031A, “Phosphoramidate analogs of 2'-deoxyuridine” (University of Rochester, priority 1991, dated 1993)
Where two headings read alike, the source gives them in different places.

How the values were obtained:
Format in all cases: cell-based
B16 melanoma cells = assay: Cytotoxicity against B16 melanoma cells (clonogenic assay); settings: read-out: LC-99 (concentration of compound required to kill 99% of B16 melanoma cells)
Procedure: ^a Concentration of compound required to kill 99% of B16 melanoma
cells in a clonogenic assay. Cells were treated with the compound for 2
B16 cells in exponential growth (2-3×10^6 cells in 10 ml of serum-free MEM medium) were treated with drug for 2 hr. The cells were separated, washed, and resuspended in MEM medium supplemented with 10% fetal bovine serum. The cells were plated in 60-mm culture dishes at a density of 50-50,000 cells/plate (depending upon the drug concentration used initially) and then incubated for 8 days in a CO2 incubator at 37° C. The colonies were fixed and stained with 0.5% crystal violet in ethanol and counted.

L1210 leukemia cells [1] = assay: Growth inhibition against L1210 leukemia cells in vitro; settings: for IC50: Mus musculus
Procedure: In addition to the B16 melanoma cell assay summarized in Table I, compounds 1a-e, 5 and 7 were evaluated for growth inhibitory activity against L1210 leukemia cells. Stock solutions of the compounds were prepared in 95% ethanol, and serial dilutions of drug were prepared in ethanol such that 50 μl of drug solution added to 10 ml of cell suspension gave the desired final concentration. L1210 cells in exponential growth were suspended in Fischer's medium supplemented with 10% horse serum, 1% glutamine, and 1% antibiotic-antimycotic solution to give 10-ml volumes of cell suspension at a final density of 3-6×10^4 /ml. Appropriate volumes of the solutions of each compound were transferred to the cell suspensions, and incubation was continued for 2, 8, 24, or 48 hr. The cells were spun down, resuspended in fresh drug-free medium, and returned to the incubator, then counted with a Coulter Counter 48 hr after treatment with the compound.
^a Data represents an average of at least two experiments; L1210 cell
were treated with compound for 2, 8, 24 and 48 hr. The drugcontaining
medium was removed, cells were washed, complete medium was added, and the
cells were incubated for 48 hr total. Cell counts were obtained 48 hr
after the start of treatment.

L1210 leukemia cells [2] = assay: Reversal of L1210 growth inhibition by addition of thymidine; settings: 5 μM thymidine
Text: The relationship between potency and alkylating activity was confirmed by the synthesis and evaluation of the non-alkylating morpholino phosphoramidate 1e.

[3] = Mus musculus, B16, 2 hr treatment
[4] = L1210, 48 h, read-out: IC50, treatment time 48 hr
[5] = L1210, read-out: IC50, treatment time 2 hr
[6] = L1210, read-out: IC50, treatment time 8 hr
[7] = L1210, read-out: IC50, treatment time 24 hr

| SMILES | IC99 (B16 melanoma cells; [3]) [µM] | IC50 (L1210 leukemia cells [1]; [4]) [nM] | IC50 (L1210 leukemia cells [1]; [5]) [nM] | IC50 (L1210 leukemia cells [1]; [6]) [nM] | IC50 (L1210 leukemia cells [1]; [7]) [nM] | further results |
| --- | --- | --- | --- | --- | --- | --- |
| Cc1cn([C@H]2C[C@H](O)[C@@H](COP(=O)(OCCC3NC(C)(C)CC(C)O3)N3CCOCC3)O2)c(=O)[nH]c1=O (some centres unmarked) [Compound 3, Thymidyl-[2-(4,4,6-trimethyltetrahydro-1,3-oxazin-2-yl)ethyl]morpholinophosphoramidate] | 152 |  |  |  |  |  |
| CC1CC(C)(C)NC(CCOP(=O)(OC[C@H]2O[C@@H](n3ccc(=O)[nH]c3=O)C[C@@H]2O)N2CCOCC2)O1 (some centres unmarked) [Compound 2, 2'-Deoxy-5'-uridyl-[2-(4,4,6-trimethyltetrahydro-1,3-oxazin-2-yl)ethyl]morpholinophosphoramidate] | 190 |  |  |  |  |  |
| CC1CC(C)(C)NC(CCOP(=O)(OC[C@H]2O[C@@H](n3cc(F)c(=O)[nH]c3=O)C[C@@H]2O)N(C)CCCl)O1 (some centres unmarked) [Compound 1c] | 308 | 3.5 | 300 | 160 | 25 |  |
| O=c1[nH]cc(F)c(=O)[nH]1 [5-Fluorouracil, reference compound] |  |  |  |  |  | IC50 (L1210 leukemia cells [1]; L1210, 2 hr treatment, counted 48 hr after start of treatment, average of at least two experiments, read-out: IC50, treatment time 2 hr): 2200 nM; IC50 (L1210 leukemia cells [1]; L1210, 8 hr treatment, counted 48 hr after start of treatment, average of at least two experiments, read-out: IC50, treatment time 8 hr): 630 nM; IC50 (L1210 leukemia cells [1]; L1210, 24 hr treatment, counted 48 hr after start of treatment, average of at least two experiments, read-out: IC50, treatment time 24 hr): 220 nM; IC50 (L1210 leukemia cells [1]; L1210, 48 hr treatment, average of at least two experiments, read-out: IC50, treatment time 48 hr): 125 nM |
| CC1CC(C)(C)NC(CCOP(=O)(OC[C@H]2O[C@@H](n3cc(F)c(=O)[nH]c3=O)C[C@@H]2O)N(C)CCI)O1 (some centres unmarked) [Compound 1d, 5-Fluoro-2'deoxy-5'-uridyl-[2-(4,4,6-trimethyltetrahydro-1,3-oxazin-2-yl)ethyl]-N-methyl-N-(2-iodoethyl)phosphoramidate] | 95 | 2 | 190 | 75 | 6 |  |
| CC1CC(C)(C)NC(CCOP(=O)(OC[C@H]2O[C@@H](n3ccc(=O)[nH]c3=O)C[C@@H]2O)N(C)CCBr)O1 (some centres unmarked) [Compound 5, 2'-Deoxy-5'-uridyl-[2-(4,4,-trimethyltetrahydro-1,3-oxazin-2-yl)ethyl]-N-methyl-N-(2-bromoethyl)phosphoramidate] | 318 | 425 | 20000 | 8200 | 1300 |  |
| CC1CC(C)(C)NC(CCOP(=O)(OC[C@H]2O[C@@H](n3cc(F)c(=O)[nH]c3=O)C[C@@H]2O)N2CCOCC2)O1 (some centres unmarked) [Compound 1e, 5-Fluoro-2'-deoxy-5'-uridyl-[2-(4,4,6-trimethyltetrahydro-1,3-oxazin-2-yl)ethyl]-morpholinophosphoramidate] | 216 | 150 | 15000 | 5000 | 900 | potency compared with 5-FU (L1210 leukemia cells [1]; long treatment times): comparable in potency to 5-FU |
| Cc1cn([C@H]2C[C@H](O)[C@@H](COP(=O)(OCCC3NC(C)(C)CC(C)O3)N(C)CCBr)O2)c(=O)[nH]c1=O (some centres unmarked) [Compound 7, Thymidyl-[2-(4,4,-trimethyltetrahydro-1,3-oxazin-2-yl)ethyl]-N-methyl-N-(2-bromoethyl)phosphoramidate] | 165 | 590 | 13000 | 10500 | 7000 |  |
| CC1CC(C)(C)NC(CCOP(=O)(OC[C@H]2O[C@@H](n3cc(F)c(=O)[nH]c3=O)C[C@@H]2O)N2CCCCC2)O1 (some centres unmarked) [Compound 4, 5-Fluoro-2'-deoxy-5'-uridyl-[2-(4,4,6-trimethyltetrahydro-1,3-oxazin-2-yl)ethyl]piperidinophosphoramidate] | 98 |  |  |  |  |  |
| CC1CC(C)(C)NC(CCOP(=O)(OC[C@H]2O[C@@H](n3cc(F)c(=O)[nH]c3=O)C[C@@H]2O)N(C)CCBr)O1 (some centres unmarked) [Compound 1a, 5-FIuoro-2'-deoxy-5'-uridyl-[2-(4,4,6-trimethyltetrahydro-1,3-oxazin-2-yl)ethyl]-N-methyl-N-(2-bromoethyl)phosphoramidate] | 100 | 2.5 | 120 | 50 | 18 | inhibition of cell proliferation (L1210 leukemia cells [1]; 1a: 2 hr contact time, iodo and tosyl analogs: compared with 1a): potent inhibitor of cell proliferation; potency relative to 5-FU (more potent) (L1210 leukemia cells [1]; treatment times of 2, 8, 24, and 48 hr): 1-2 orders of magnitude; inhibitory activity on addition of thymidine (L1210 leukemia cells [2]): completely blocked |
| Cc1ccc(S(=O)(=O)OCCN(C)P(=O)(OCCC2NC(C)(C)CC(C)O2)OC[C@H]2O[C@@H](n3cc(F)c(=O)[nH]c3=O)C[C@@H]2O)cc1 (some centres unmarked) [Compound 1b] | 156 | 2.5 | 160 | 60 | 19 |  |
| Cc1cn([C@H]2C[C@H](O)[C@@H](COP(=O)(OCCC3NC(C)(C)CC(C)O3)N(CCBr)CCBr)O2)c(=O)[nH]c1=O (some centres unmarked) [Compound 8, Thymidyl-[2-(4,4,6-trimethyltetrahydro-1,3-oxazin-2-yl)ethyl]bis-(2-bromoethyl)phosphoramidate] |  |  |  |  |  | IC99 (B16 melanoma cells; 2 hr treatment): 120 µM |
